Data: ChEMBL document CHEMBL1140275, “Discovery of a novel and potent series of dianilinopyrimidineurea and urea isostere inhibitors of VEGFR2 tyrosine kinase” (Bioorg Med Chem Lett, 2005)

Key:
HUVEC = experiment: Inhibitory concentration against human umbilical vein endothelial cells (HUVECs) induced by VEGF; assay type: functional, cell-based
[1] = molecular target: Vascular endothelial growth factor receptor 2 (Homo sapiens, UniProt P35968); experiment: Inhibitory concentration against human VEGFR2 kinase
Sequence of Vascular endothelial growth factor receptor 2 (P35968 whole entry): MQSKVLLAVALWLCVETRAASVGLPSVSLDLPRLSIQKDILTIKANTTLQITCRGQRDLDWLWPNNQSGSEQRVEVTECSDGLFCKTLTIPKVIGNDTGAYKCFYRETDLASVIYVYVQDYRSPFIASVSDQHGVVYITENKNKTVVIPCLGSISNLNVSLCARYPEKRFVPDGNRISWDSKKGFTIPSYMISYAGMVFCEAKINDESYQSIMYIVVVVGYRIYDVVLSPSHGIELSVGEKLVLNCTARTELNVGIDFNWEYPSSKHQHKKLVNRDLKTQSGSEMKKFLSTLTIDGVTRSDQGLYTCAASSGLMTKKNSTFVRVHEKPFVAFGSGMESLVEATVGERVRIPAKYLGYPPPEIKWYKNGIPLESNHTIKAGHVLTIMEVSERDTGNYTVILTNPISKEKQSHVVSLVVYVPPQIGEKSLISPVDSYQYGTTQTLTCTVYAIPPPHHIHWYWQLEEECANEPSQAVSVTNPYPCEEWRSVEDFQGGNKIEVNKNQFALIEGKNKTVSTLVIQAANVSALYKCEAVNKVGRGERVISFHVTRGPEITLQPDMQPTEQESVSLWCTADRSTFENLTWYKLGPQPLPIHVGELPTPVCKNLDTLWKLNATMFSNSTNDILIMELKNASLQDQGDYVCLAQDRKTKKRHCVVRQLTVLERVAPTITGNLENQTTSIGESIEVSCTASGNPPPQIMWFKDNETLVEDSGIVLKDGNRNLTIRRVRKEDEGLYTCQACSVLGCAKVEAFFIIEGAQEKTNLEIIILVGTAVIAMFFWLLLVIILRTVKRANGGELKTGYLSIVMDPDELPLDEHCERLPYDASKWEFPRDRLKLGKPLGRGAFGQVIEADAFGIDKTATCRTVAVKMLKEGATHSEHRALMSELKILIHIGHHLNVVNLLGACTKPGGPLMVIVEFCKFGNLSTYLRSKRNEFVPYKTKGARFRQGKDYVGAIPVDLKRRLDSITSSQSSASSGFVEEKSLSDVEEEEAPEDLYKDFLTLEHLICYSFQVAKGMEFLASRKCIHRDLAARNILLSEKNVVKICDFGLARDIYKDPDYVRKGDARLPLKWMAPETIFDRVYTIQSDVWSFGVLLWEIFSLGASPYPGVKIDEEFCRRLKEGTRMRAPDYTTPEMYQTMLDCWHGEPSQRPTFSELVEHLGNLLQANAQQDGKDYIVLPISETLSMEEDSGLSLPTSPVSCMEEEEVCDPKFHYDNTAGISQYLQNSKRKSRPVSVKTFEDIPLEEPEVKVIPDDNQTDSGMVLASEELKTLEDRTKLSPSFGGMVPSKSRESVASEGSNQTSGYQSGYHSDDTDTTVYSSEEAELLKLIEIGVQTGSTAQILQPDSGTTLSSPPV

Row | IC50 [1] [nM] | SMILES | IC50 (HUVEC) [nM]
1 |  | CN(c1ccc(NC(=O)Nc2ccccc2)cc1)c1ccnc(Nc2cccc(CS(C)(=O)=O)c2)n1 | 0.2
2 | 1 | CN(c1ccc(NC(=O)Nc2cc(C(F)(F)F)ccc2F)cc1)c1ccnc(Nc2ccc(S(N)(=O)=O)cc2)n1 | 8
3 | 26 | CCNC(=O)Nc1ccc(N(C)c2ccnc(Nc3ccc(CS(C)(=O)=O)cc3)n2)cc1 | 27
4 |  | CN(c1ccc(NC(=O)Oc2ccccc2)cc1)c1ccnc(Nc2cccc(CS(C)(=O)=O)c2)n1 | 224
5 |  | CN(c1ccc(NS(=O)(=O)Cc2ccccc2)cc1)c1ccnc(Nc2cccc(CS(C)(=O)=O)c2)n1 | 350
6 | 150 | CN1CCN(C(=O)c2ccc(NC(=O)Nc3ccc(N(C)c4ccnc(Nc5ccc(CS(C)(=O)=O)cc5)n4)cc3)cc2)CC1 | 516
7 | 6 | CN(c1ccc(NC(=O)Nc2ccc(OC(F)(F)F)cc2)cc1)c1ccnc(Nc2cccc(CS(C)(=O)=O)c2)n1 | 7
8 | 4 | CN1CCN(Cc2ccc(NC(=O)Nc3ccc(N(C)c4ccnc(Nc5ccc(CS(C)(=O)=O)cc5)n4)cc3)cc2)CC1 | 2
9 | 3110 | CN(C)CCNC(=O)Nc1ccc(N(C)c2ccnc(Nc3ccc(CS(C)(=O)=O)cc3)n2)cc1 | 2980
10 | 2 | CN(c1ccc(NC(=O)Nc2ccc(OC(F)(F)F)cc2)cc1)c1ccnc(Nc2ccc(S(N)(=O)=O)cc2)n1 | 37
11 | 681 | CN(C)CCNC(=O)Nc1ccc(N(C)c2ccnc(Nc3cccc(CS(C)(=O)=O)c3)n2)cc1 | 530
12 | 29 | CCCCNC(=O)Nc1ccc(N(C)c2ccnc(Nc3cccc(CS(C)(=O)=O)c3)n2)cc1 | 2
13 |  | CN(c1ccc(NC(=N)Nc2ccccc2)cc1)c1ccnc(Nc2cccc(CS(C)(=O)=O)c2)n1 | 596
14 | 2 | CN(c1ccc(NC(=O)Nc2cc(C(F)(F)F)ccc2F)cc1)c1ccnc(Nc2ccc(CS(C)(=O)=O)cc2)n1 | 2
15 |  | CN(c1ccc(N/C(S)=N/c2ccccc2)cc1)c1ccnc(Nc2cccc(CS(C)(=O)=O)c2)n1 | 6
16 | 35 | CN(c1ccc(NC(=O)Nc2cc(C(F)(F)F)ccc2F)cc1)c1ccnc(Nc2cccc(CS(C)(=O)=O)c2)n1 | 7
17 |  | CN(c1ccc(NC(=O)Cc2ccccc2)cc1)c1ccnc(Nc2cccc(CS(C)(=O)=O)c2)n1 | 49
18 | 1 | CN(c1ccc(NC(=O)Nc2cc(C(F)(F)F)ccc2F)cc1)c1ccnc(Nc2cccc(S(N)(=O)=O)c2)n1 | 10
19 | 11 | CN(c1ccc(NC(=O)NCCc2ccccc2)cc1)c1ccnc(Nc2cccc(CS(C)(=O)=O)c2)n1 | 10
20 | 3 | CC(=O)c1ccc(NC(=O)Nc2ccc(N(C)c3ccnc(Nc4cccc(CS(C)(=O)=O)c4)n3)cc2)cc1 | 2
21 |  | CN(c1ccc(NC(=O)Nc2ccccc2)cc1)c1ccnc(Nc2cccc(S(N)(=O)=O)c2)n1 | 2
22 | 990 | CN(c1ccc(NC(=O)NCCN2CCOCC2)cc1)c1ccnc(Nc2ccc(CS(C)(=O)=O)cc2)n1 | 471
23 | 4490 | CN(c1ccc(NC(=O)N2CCN(CCCN3CCOCC3)CC2)cc1)c1ccnc(Nc2ccc(CS(C)(=O)=O)cc2)n1 | 850
24 | 31 | CN(c1ccc(NC(=O)NC2CCCC2)cc1)c1ccnc(Nc2cccc(CS(C)(=O)=O)c2)n1 | 1
25 | 17 | CCNC(=O)Nc1ccc(N(C)c2ccnc(Nc3cccc(CS(C)(=O)=O)c3)n2)cc1 | 3
26 | 2 | CN(c1ccc(NC(=O)Nc2ccc(OC(F)(F)F)cc2)cc1)c1ccnc(Nc2cccc(S(N)(=O)=O)c2)n1 [GW806742X] | 5
27 | 65 | CN(c1ccc(NC(=O)Nc2c(Cl)cccc2Cl)cc1)c1ccnc(Nc2cccc(CS(C)(=O)=O)c2)n1 [GW809897X] | 29
